Measured values as given in patent publication US11292788B2, “IL-17 and IFN-gamma inhibition for the treatment of autoimmune diseases and chronic inflammation” (Immunic AG, priority 2017, dated 2022).
Where two headings read alike, the source gives them in different places.

Legend:
INF-γ = test: Cytokine assay: INF-γ production by human PBMC stimulated with PHA; format: cell-based; conditions: IC50 class, read-out: IFN-gamma Inhib.
Outline: (§1)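 Healthy-donor PBMC, isolated on Histopaque-1077, were seeded at 1×10^5 cells/well in RPMI1640 with 10% dialyzed heat-inactivated FCS, activated with 2 μg/ml PHA and incubated with compound for 48 hours. Supernatant cytokine was measured by Luminex BioPlex or ELISA. IC50 came from semilogarithmic titration; screening used 10, 1, 0.1 and 0.01 μM.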

[1] = Microsomal stability: incubation with human liver microsomes, residual parent compound by HPLC-MS/MS; format: in vitro ADME; conditions: human liver microsomes 0.5 mg/ml, compound 1 μM, pH 7.4, 37° C., up to 60 min; read-out: t1/2 hLM
Protocol: Metabolic stability of compounds of the present invention was determined by incubation with human liver microsomes and subsequent determination of residual amount of the respective compound (“parent compound”) by HPLC-MS/MS.
In order to achieve this, in a final reaction volume of 1000 μl, each compound was incubated at a final concentration of 1 μM with 0.5 mg/ml human liver microsomes (HLM Pool 50 Donors, 20 mg/ml, BD Gentest, #452156, LotNr 88114) in 0.1 M Potassium phosphate buffer at pH 7.4, with a cofactor in form of a NADPH regenerating system (Promega, #V9510) according to the manufacturers' specifications. The final DMSO concentration in each sample was 0.4%. The incubation was performed at 37° C. under shaking conditions (Thermomixer, 1400 rpm) for different time intervals up to 60 min. To stop the reaction, for each time point 200 μl of the reaction were taken out and 200 μl ice-cold acetonitrile was added. Then, the samples were centrifuged (4° C., 14000*g for 15 min). The supernatant was analyzed for residual parent compound concentration and scanned for metabolites using HPLC-MS/MS. By using optimized MS methods for each compound, the peak area under curve for the compound specific signal is determined. The change of the peak areas over the assay time of 60 min resemble the remaining parent compound in % of T0. By these points, a balancing line was set. The half-time, as well as the clearance, can then be calculated on the basis of the slope.

IL-17F = test: Cytokine assay: IL-17F production by human PBMC stimulated with PHA; format: cell-based; conditions: IC50 class, read-out: IL-17F Inhib.
Outline: as §1

IL-17A = test: Cytokine assay: IL-17A production by human PBMC stimulated with PHA; format: cell-based; conditions: IC50 class, read-out: IL-17A Inhib.
Outline: as §1

| SMILES | IC50 (INF-γ; Homo sapiens, PBMC) | half-life at 1 μM [1] | IC50 (IL-17F; Homo sapiens, PBMC) | IC50 (IL-17A; Homo sapiens, PBMC) | IC50 (INF-γ) | IC50 (IL-17F) | IC50 (IL-17A) |
| --- | --- | --- | --- | --- | --- | --- | --- |
| CCC(O)Cn1ncc(-c2onc(-c3c(F)cccc3Cl)c2-c2nccs2)c1C(F)(F)F (racemic) [Example 6, 1-{4-[3-(2-chloro-6-fluorophenyl)-4-(1,3-thiazol-2-yl)-1,2-oxazol-5-yl]-5-(trifluoromethyl)-1H-pyrazol-1-yl}butan-2-ol] | < 50 nM | 10 to 40 min | < 50 nM | < 50 nM |  |  |  |
| OC(Cn1ncc(-c2onc(-c3c(F)cccc3Cl)c2-c2nccs2)c1C(F)(F)F)C(F)(F)F (racemic) [Example 7, 3-{4-[3-(2-chloro-6-fluorophenyl)-4-(1,3-thiazol-2-yl)-1,2-oxazol-5-yl]-5-(trifluoromethyl)-1H-pyrazol-1-yl}-1,1,1-trifluoropropan-2-ol] | < 50 nM | 10 to 40 min | < 50 nM | < 50 nM |  |  |  |
| CC(C)(O)CCn1ncc(-c2onc(-c3c(F)cccc3Cl)c2-c2nccs2)c1C(F)(F)F [Example 3, 4-(4-(3-(2-chloro-6-fluorophenyl)-4-(thiazol-2-yl)isoxazol-5-yl)-5-(trifluoromethyl)-1H-pyrazol-1-yl)-2-methylbutan-2-ol] | < 50 nM | > 100 min | < 50 nM | < 50 nM |  |  |  |
| C[C@@H](O)Cn1ncc(-c2onc(-c3c(F)cccc3Cl)c2-c2nccs2)c1C(F)(F)F [Example 4, (2R)-1-(4-(3-(2-chloro-6-fluorophenyl)-4-(thiazol-2-yl)isoxazol-5-yl)-5-(trifluoromethyl)-1H-pyrazol-1-yl)propan-2-ol] | < 50 nM | 10 to 40 min | < 50 nM | < 50 nM |  |  |  |
| C[C@H](O)Cn1ncc(-c2onc(-c3c(F)cccc3Cl)c2-c2nccs2)c1C(F)(F)F [Example 5, (2S)-1-(4-(3-(2-chloro-6-fluorophenyl)-4-(thiazol-2-yl)isoxazol-5-yl)-5-(trifluoromethyl)-1H-pyrazol-1-yl)propan-2-ol] | < 50 nM | 40 to 100 min | 50 to 500 nM | < 50 nM |  |  |  |
| CCOC(=O)c1c(-c2c(F)cccc2Cl)noc1-c1cnn(C[C@@H](O)C(F)(F)F)c1C(F)(F)F [Example 16, ethyl 3-(2-chloro-6-fluorophenyl)-5-{1-[(2R)-3,3,3-trifluoro-2-hydroxypropyl]-5-(trifluoromethyl)-1H-pyrazol-4-yl}-1,2-oxazole-4-carboxylate] | < 50 nM | 2 to 9.99 min | < 50 nM | < 50 nM |  |  |  |
| COC(=O)c1c(-c2ccccc2Cl)noc1-c1cnn([C@H]2C[C@](C)(O)C2)c1C [Example 18, methyl 3-(2-chlorophenyl)-5-(1-(3-hydroxy-3-methylcyclobutyl)-5-methyl-1H-pyrazol-4-yl)isoxazole-4-carboxylate] |  | > 100 min |  |  | < 50 nM | < 50 nM | 50 to 500 nM |
| COC(=O)c1c(-c2ccccc2Cl)noc1-c1cnn(CCC(C)(C)O)c1C [Example 19, methyl 3-(2-chlorophenyl)-5-[1-(3-hydroxy-3-methylbutyl)-5-methyl-1H-pyrazol-4-yl]-1,2-oxazole-4-carboxylate] | < 50 nM | > 100 min | 50 to 500 nM | < 50 nM |  |  |  |
| COC(=O)c1c(-c2c(F)cccc2Cl)noc1-c1cnn(C[C@H](C)O)c1C(F)(F)F [Example 23, methyl (S)-3-(2-chloro-6-fluorophenyl)-5-(1-(2-hydroxypropyl)-5-(trifluoromethyl)-1H-pyrazol-4-yl)isoxazole-4-carboxylate] | < 50 nM | 10 to 40 min | 50 to 500 nM | 50 to 500 nM |  |  |  |
| COC(=O)c1c(-c2cccc(OC)c2Cl)noc1-c1cnn(CCC(C)(C)O)c1C [Example 25, methyl 3-(2-chloro-3-methoxyphenyl)-5-[1-(3-hydroxy-3-methylbutyl)-5-methyl-1H-pyrazol-4-yl]-1,2-oxazole-4-carboxylate] | < 50 nM | > 100 min | < 50 nM | < 50 nM |  |  |  |
| Cc1c(-c2onc(-c3ccccc3Cl)c2C(=O)OC2CC2)cnn1[C@H]1C[C@@](C)(O)C1 [Example 53, cyclopropyl 3-(2-chlorophenyl)-5-{5-methyl-1-[3-hydroxy-3-methylcyclobutyl]-1H-pyrazol-4-yl}-1,2-oxazole-4-carboxylate] | < 50 nM | > 100 min |  |  |  | < 50 nM | < 50 nM |
| CC(C)(O)Cn1ncc(-c2onc(-c3c(F)cccc3Cl)c2C(=O)OC2CC2)c1C(F)(F)F [Example 55, cyclopropyl 3-(2-chloro-6-fluorophenyl)-5-[1-(2-hydroxy-2-methylpropyl)-5-(trifluoromethyl)-1H-pyrazol-4-yl]-1,2-oxazole-4-carboxylate] | < 50 nM | 40 to 100 min | < 50 nM | < 50 nM |  |  |  |
| C[C@@H](O)Cn1ncc(-c2onc(-c3c(F)cccc3Cl)c2C(=O)OC2COC2)c1C(F)(F)F [Example 58, oxetan-3-yl 3-(2-chloro-6-fluorophenyl)-5-{1-[(2R)-2-hydroxypropyl]-5-(trifluoromethyl)-1H-pyrazol-4-yl}-1,2-oxazole-4-carboxylate] | < 50 nM | 40 to 100 min | < 50 nM | 50 to 500 nM |  |  |  |
| Cc1c(-c2onc(-c3c(F)cccc3Cl)c2C(=O)OC2CC2)cnn1[C@H]1C[C@@](C)(O)C1 [Example 61, cyclopropyl 3-(2-chloro-6-fluorophenyl)-5-{5-methyl-1-[3-hydroxy-3-methylcyclobutyl]-1H-pyrazol-4-yl}-1,2-oxazole-4-carboxylate] | < 50 nM | 40 to 100 min | < 50 nM | < 50 nM |  |  |  |
| COCc1c(-c2c(F)cccc2Cl)noc1-c1cnn([C@H]2C[C@@](C)(O)C2)c1C(F)(F)F [Example 69, 3-(4-(3-(2-chloro-6-fluorophenyl)-4-(methoxymethyl)isoxazol-5-yl)-5-(trifluoromethyl)-1H-pyrazol-1-yl)-1-methylcyclobutan-1-ol] | < 50 nM | > 100 min | 50 to 500 nM | 50 to 500 nM |  |  |  |
| C[C@@H](O)Cn1ncc(-c2onc(-c3c(F)cccc3Cl)c2COC2CC2)c1C(F)(F)F [Example 85, (2R)-1-(4-(3-(2-chloro-6-fluorophenyl)-4-(cyclopropoxymethyl)isoxazol-5-yl)-5-(trifluoromethyl)-1H-pyrazol-1-yl)propan-2-ol] | < 50 nM | 10 to 40 min | < 50 nM | < 50 nM |  |  |  |
| C[C@]1(O)C[C@@H](n2ncc(-c3onc(-c4c(F)cccc4Cl)c3COC3CC3)c2C(F)(F)F)C1 [Example 86, 3-(4-(3-(2-chloro-6-fluorophenyl)-4-(cyclopropoxymethyl)isoxazol-5-yl)-5-(trifluoromethyl)-1H-pyrazol-1-yl)-1-methylcyclobutan-1-ol] | < 50 nM | > 100 min | < 50 nM | < 50 nM |  |  |  |
| COc1c(C(=O)NC2CCC2)cccc1-c1noc(-c2cnn(C[C@@H](C)O)c2C(F)(F)F)c1-c1ccncn1 [Example 164, (R)—N-cyclobutyl-3-(5-(1-(2-hydroxypropyl)-5-(trifluoromethyl)-1H-pyrazol-4-yl)-4-(pyrimidin-4-yl)isoxazol-3-yl)-2-methoxybenzamide] | 500 to 5000 nM |  | 500 to 5000 nM | 500 to 5000 nM |  |  |  |
| CCNC(=O)c1cccc(-c2noc(-c3cnn(C[C@@H](C)O)c3C(F)(F)F)c2-c2ccncn2)c1OC [Example 165, (R)—N-ethyl-3-(5-(1-(2-hydroxypropyl)-5-(trifluoromethyl)-1H-pyrazol-4-yl)-4-(pyrimidin-4-yl)isoxazol-3-yl)-2-methoxybenzamide] | 500 to 5000 nM |  | ≥ 5000 nM | 500 to 5000 nM |  |  |  |
| C[C@@H](O)Cn1ncc(-c2onc(-c3cccc(C(=O)NC4CCC4)c3)c2-c2ccncn2)c1C(F)(F)F [Example 166, (R)—N-cyclobutyl-3-(5-(1-(2-hydroxypropyl)-5-(trifluoromethyl)-1H-pyrazol-4-yl)-4-(pyrimidin-4-yl)isoxazol-3-yl)benzamide] | 500 to 5000 nM |  | ≥ 5000 nM | 500 to 5000 nM |  |  |  |
| CC(C)NC(=O)c1cccc(-c2noc(-c3cnn(C[C@@H](C)O)c3C(F)(F)F)c2-c2ccncn2)c1 [Example 167, (R)-3-(5-(1-(2-hydroxypropyl)-5-(trifluoromethyl)-1H-pyrazol-4-yl)-4-(pyrimidin-4-yl)isoxazol-3-yl)-N-isopropylbenzamide] | 500 to 5000 nM |  | ≥ 5000 nM | ≥ 5000 nM |  |  |  |
